Source: patent publication US4736051A, “Process for the preparation of an alkali metal salt of a diester phosphoric acid” (Kao Corporation, priority 1985, dated 1988)

Tests used:
Type in all cases: physicochemical
[1] = Phase diagram in aqueous system (FIG. 1)
[2] = Hygroscopicity of isolated powder; details: white powder
[3] = Lather amount (lather volume) of 5% aqueous solution of surface active agent; details: 100 g, 1000 rpm, 30 seconds agitation, 10 seconds standing, 40° C.
Experimental: The lather amount was measured according to the following manner. An aqueous solution containing 5% of surface active agent is prepared and 100 g of the aqueous solution is poured into a measuring cylinder, followed by agitation for 30 seconds by agitator. After agitation, the aqueous solution is placed as it is for 10 seconds, followed by subjecting to measurement of the lather volume. The revolution of the agitator is 1000 rpm and the agitator paddles are reversely rotated every 5 seconds. Temperature was maintained 40° C. during the measurement.

Craft point = test: Craft point

| hygroscopicity [2] | Molecule | phase diagram in aqueous systems [1] | lather amount (lather Vol. ml) [3] [mL] | craft point (°C.) (Craft point) [°C] |
| --- | --- | --- | --- | --- |
|  | C=C(C)C(=O)OCC(O)COP(=O)([O-])OCCCCCCCCCCCC.[Na+] (stereo not drawn) [Compound (XIV), sodium dodecyl 2-hydroxy-3-methacryloyloxypropyl phosphate] | liquid crystals |  |  |
| very hygroscopic | CCCCCCCCCCCCOP(=O)([O-])OCC(O)C[N+](C)(C)C (stereo not drawn) [Example 14] |  |  |  |
|  | CCCCCCCCCCCCOP(=O)([O-])[O-].[Na+].[Na+] [Sodium 1 dodecyl phosphate] |  | 260 | 32 |
|  | Sodium 2 dodecyl phosphate |  | 230 | 20 |
